Measured values from patent US20250019387A1 (Frontier Medicines Corporation, priority 0001, published 2025).

Legend:
[1] = target: KRAS G12C and PI3Ka (Ras-binding domain) interaction (Homo sapiens (Human), UniProt P01116, C118S/C51S/C80L/G12C); test: Inhibition of KRAS G12C and PI3Ka binding (AlphaScreen); conditions: GMPPNP-loaded KRAS G12C, 2 hours incubation with compound; read-out: PI3Ka RBD IC50
Description: Compounds were diluted in 100% DMSO and each compound concentration was spotted at 200 nl/well onto low volume, white 384 well plates. […] The KRAS GT2C was diluted in 25 mM Hepes, pH 7.4, 150 mM NaCl, 5 mMv MgCl2, 0.0100 TritonX-100 and 10 μM GMPPNP and added at 10 ul/well to compound-spotted plates resulting in a […] concentration of 2%. Plates were incubated for 2 hours. A mixture of RBD and the AlphaScreen streptavidin donor and nickel chelate acceptor beads diluted in 25 mMv Hepes, pH 7.4, 150 mMv NaCl, 5 mM MgCl2, 0.0100 TritonX-100 and 2% DMSO was then added at 10 ul/well and incubated for 60-90 minutes before the samples were read for emission at 570 nm after excitation of the donor beads at 680 nm. All incubations were performed at room temperature. […] Final assay conditions were 1.5 nM KRAS GT2C, 100 nM RBD, 1.25 ug/ml of AlphaScreen donor beads and 10 μg/ml AlphaLISA acceptor beads. IC50S were determined using nonlinear regression fit of [inhibitor]vs. response (4 parameters). […]

[2] = target: KRAS G12C and cRAF (Ras-binding domain) interaction (Homo sapiens (Human), UniProt P01116, C118S/C51S/C80L/G12C); test: Inhibition of KRAS G12C and cRAF binding (AlphaScreen); conditions: GMPPNP-loaded KRAS G12C, 19-20 hours incubation with compound; read-out: IC50 (Inhibition of KRAS G12C and cRAF Binding)
KRAS G12C and cRAF (Ras-binding domain) interaction, sequence (P01116 other isoform, or with tags, fused parts or gaps G12C/C51S/C80L/C118S): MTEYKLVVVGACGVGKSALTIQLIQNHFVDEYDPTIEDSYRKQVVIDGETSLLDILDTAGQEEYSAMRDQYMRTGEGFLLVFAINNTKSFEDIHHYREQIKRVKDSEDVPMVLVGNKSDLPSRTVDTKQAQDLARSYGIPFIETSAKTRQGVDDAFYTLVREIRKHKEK
Outline: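 Compounds (DMSO) preincubated 19-20 h at room temperature, then RBD with streptavidin donor and glutathione acceptor beads added in 25 mM Hepes pH 7.4, 150 mM NaCl, 5 mM MgCl2, 0.01% Triton X-100, 2% DMSO for 60-90 min. Emission 570 nm (excitation 680 nm); IC50 by 4-parameter fit. Counter-screen used biotin-AviTag-GST instead of RBD.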

KRAS G12C and PI3Ka (Ras-binding domain) interaction, sequence (P01116 other isoform, or with tags, fused parts or gaps G12C/C51S/C80L/C118S): as above

Compound	IC50 [1]	IC50 [2]
CN(CC1CN(C(=O)/C=C/c2nc(C3CC3)no2)C1)c1nc(OCC23CCCN2CCC3)nc2c1CCN(c1cccc3cccc(Cl)c13)C2 [Example 172, (E)-1-(3-(((7-(8-chloronaphthalen-1-yl)-2-((hexahydro-1H-pyrrolizin-7a-yl)methoxy)-5,6,7,8-tetrahydropyrido[3,4-d]pyrimidin-4-yl)(methyl)amino)methyl)azetidin-1-yl)-3-(3-cyclopropyl-1,2,4-oxadiazol-5-yl)prop-2-en-1-one]	10 to 100 nM	10 to 100 nM
CN(CC1CN(C(=O)/C=C/c2nc(C3CC3)no2)C1)c1nc(OCC23CCCN2CCC3)nc2c(F)c(-c3cccc4cccc(Cl)c34)ncc12 [Example 173, (E)-1-(3-(((7-(8-chloronaphthalen-1-yl)-8-fluoro-2-((tetrahydro-1H-pyrrolizin-7a(5H)-yl)methoxy)pyrido[4,3-d]pyrimidin-4-yl)(methyl)amino)methyl)azetidin-1-yl)-3-(3-cyclopropyl-1,2,4-oxadiazol-5-yl)prop-2-en-1-one]	10 to 100 nM	10 to 100 nM
CN(c1nc(OC[C@@]23CCCN2C[C@H](F)C3)nc2c(F)c(-c3cccc4cccc(Cl)c34)ncc12)[C@@H]1CCN(C(=O)/C=C/c2nc([C@H]3C[C@@H]3F)no2)C1 [Example 140, (E)-1-((R)-3-((7-(8-chloronaphthalen-1-yl)-8-fluoro-2-(((2R,7aS)-2-fluorohexahydro-1H-pyrrolizin-7a-yl)methoxy)pyrido[4,3-d]pyrimidin-4-yl)(methyl)amino)pyrrolidin-1-yl)-3-(3-((1R,2S)-2-fluorocyclopropyl)-1,2,4-oxadiazol-5-yl)prop-2-en-1-one]	10 to 100 nM	10 to 100 nM
CN1C[C@@H](O)C[C@@H]1C#CC(=O)N1CC[C@@H](N(C)c2nc(OC[C@@]34CCCN3C[C@H](F)C4)nc3c(F)c(-c4cccc5cccc(Cl)c45)ncc23)C1 [Example 248, 1-((R)-3-((7-(8-chloronaphthalen-1-yl)-8-fluoro-2-(((2R,7aS)-2-fluorohexahydro-1H-pyrrolizin-7a-yl)methoxy)pyrido[4,3-d]pyrimidin-4-yl)(methyl)amino)pyrrolidin-1-yl)-3-((2R,4S)-4-hydroxy-1-methylpyrrolidin-2-yl)prop-2-yn-1-one]	10 to 100 nM	10 to 100 nM
CN1C[C@H](O)C[C@H]1C#CC(=O)N1CC[C@@H](N(C)c2nc(OC[C@@]34CCCN3C[C@H](F)C4)nc3c(F)c(-c4cccc5cccc(Cl)c45)ncc23)C1 [Example 247, 1-((R)-3-((7-(8-chloronaphthalen-1-yl)-8-fluoro-2-(((2R,7aS)-2-fluorohexahydro-1H-pyrrolizin-7a-yl)methoxy)pyrido[4,3-d]pyrimidin-4-yl)(methyl)amino)pyrrolidin-1-yl)-3-((2S,4R)-4-hydroxy-1-methylpyrrolidin-2-yl)prop-2-yn-1-one]	10 to 100 nM	< 10 nM
CN(CC1CN(C(=O)/C=C/c2nc([C@H]3C[C@@H]3F)no2)C1)c1nc(OC[C@@]23CCCN2C[C@H](F)C3)nc2c(F)c(-c3cccc4cccc(Cl)c34)ncc12 [Example 139, (E)-1-(3-(((7-(8-chloronaphthalen-1-yl)-8-fluoro-2-(((2R,7aS)-2-fluorotetrahydro-1H-pyrrolizin-7a(5H)-yl)methoxy)pyrido[4,3-d]pyrimidin-4-yl)(methyl)amino)methyl)azetidin-1-yl)-3-(3-((1R,2S)-2-fluorocyclopropyl)-1,2,4-oxadiazol-5-yl)prop-2-en-1-one]	10 to 100 nM	10 to 100 nM
